Reference: ChEMBL document CHEMBL4014295, “Discovery and structure-activity relationship studies of N-substituted indole derivatives as novel Mcl-1 inhibitors” (Bioorg Med Chem Lett, 2017)

Columns and labels:
[1] = target: Induced myeloid leukemia cell differentiation protein Mcl-1 (Homo sapiens, UniProt Q07820); test: Inhibition of 6-carboxyfluorescein succinimidyl ester fluorescence tagged-Bid BH3 peptide (79 to 99 residues) binding to Mcl-1 (unknown origin) after 30 mins by fluorescence polarization assay
Induced myeloid leukemia cell differentiation protein Mcl-1, sequence (Q07820 whole entry, the tested form may be a part): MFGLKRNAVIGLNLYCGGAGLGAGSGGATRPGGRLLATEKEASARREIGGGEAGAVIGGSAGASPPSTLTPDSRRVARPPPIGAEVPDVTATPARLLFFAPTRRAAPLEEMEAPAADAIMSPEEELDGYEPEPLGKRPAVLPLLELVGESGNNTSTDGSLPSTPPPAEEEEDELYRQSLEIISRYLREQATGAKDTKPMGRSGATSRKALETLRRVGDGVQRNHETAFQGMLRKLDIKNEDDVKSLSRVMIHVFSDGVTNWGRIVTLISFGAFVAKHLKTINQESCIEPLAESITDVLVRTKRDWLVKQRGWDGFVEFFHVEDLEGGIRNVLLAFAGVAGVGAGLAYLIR

[2] = target: Apoptosis regulator Bcl-2 (Homo sapiens, UniProt P10415); test: Inhibition of 6-carboxyfluorescein succinimidyl ester fluorescence tagged-Bid BH3 peptide (79 to 99 residues) binding to Bcl-2 (unknown origin) after 30 mins by fluorescence polarization assay
Apoptosis regulator Bcl-2, sequence (P10415 whole entry, the tested form may be a part): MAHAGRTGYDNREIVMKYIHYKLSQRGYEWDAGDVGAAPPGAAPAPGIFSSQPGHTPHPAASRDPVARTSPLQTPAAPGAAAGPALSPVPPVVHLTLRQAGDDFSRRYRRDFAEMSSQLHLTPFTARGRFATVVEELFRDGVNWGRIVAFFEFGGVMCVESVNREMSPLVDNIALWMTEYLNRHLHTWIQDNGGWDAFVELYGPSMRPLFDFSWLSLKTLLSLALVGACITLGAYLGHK

Row | Compound | Ki [1] [nM] | Ki [2] [nM]
1 | Cc1cc(OCCCn2ccc3ccccc32)cc(C)c1Cl | > 30000 | –
2 | CC(C)(C)c1ccc(SCCCn2ccc3ccc(OCC(=O)O)cc32)cc1 | 2380 | –
3 | CCOC(=O)COc1ccc2ccn(CCCOc3cc(C)c(Cl)c(C)c3)c2c1 | 3370 | –
4 | Cc1cc(OCCCn2ccc3c(OCc4ccccc4C(=O)O)cccc32)cc(C)c1Cl | 140 | 230
5 | CC(C)(C)Oc1ccc(OCCCn2ccc3ccc(OCC(=O)O)cc32)cc1 | 1870 | –
6 | Cc1cc(OCCCn2c(C(=O)N(C)C)cc3ccc(OCc4ccccc4C(=O)O)cc32)cc(C)c1Cl | 570 | 730
7 | Cc1cc(C)cc(OCCCn2ccc3ccc(OCC(=O)O)cc32)c1 | 12500 | –
8 | O=C(O)COc1ccc2ccn(CCCOc3ccccc3)c2c1 | > 30000 | –
9 | CCOC(=O)c1ccc2ccn(CCCOc3cc(C)c(Cl)c(C)c3)c2c1 | > 30000 | –
10 | CC(C)(C)c1ccc(OCCCn2ccc3cc(OCc4cccc(C(=O)O)c4)ccc32)cc1 | 250 | 470
11 | Cc1cc(OCCCn2c(C(=O)N3CCCCC3)cc3ccc(OCc4ccccc4C(=O)O)cc32)cc(C)c1Cl | 200 | 270
12 | Cc1cc(OCCn2ccc3ccc(OCC(=O)O)cc32)cc(C)c1Cl | 11600 | –
13 | Cc1cc(OCCCn2ccc3ccc(OCc4ccc(C(=O)O)cc4)cc32)cc(C)c1Cl | 1190 | 1240
14 | NC(=O)c1cc2ccc(OCC(=O)O)cc2n1CCCOc1cccc2ccccc12 | 10300 | –
15 | O=C(O)COc1ccc2ccn(CCCOc3ccc(Oc4ccccc4)cc3)c2c1 | 3240 | –
16 | Cc1cc(OCCCn2ccc3ccc(OCC(=O)O)cc32)ccc1Cl | 9890 | –
17 | Cc1ccc2ccn(CCCOc3cc(C)c(Cl)c(C)c3)c2c1 | > 30000 | –
18 | CC(C)(C)c1ccc(OCCCn2ccc3cc(OCc4ccccc4C(=O)O)ccc32)cc1 | 310 | 170
19 | Cc1cc(OCCCn2ccc3c(OCc4cccc(C(=O)O)c4)cccc32)cc(C)c1Cl | 150 | 140
20 | Cc1cc(OCCCn2ccc3ccc(OCCCC(=O)O)cc32)cc(C)c1Cl | 2680 | –
21 | Cc1cc(OCCCn2ccc3c(OCC(=O)O)cccc32)cc(C)c1Cl | 2000 | –

Row | Compound | Ki [1] [nM] | Ki [2] [nM]
22 | CC(C)(C)Oc1ccc(OCCCn2c(C(N)=O)cc3ccc(OCC(=O)O)cc32)cc1 | 5380 | –
23 | COc1ccc(OCCCn2ccc3ccc(OCC(=O)O)cc32)cc1 | 4420 | –
24 | Cc1cc(OCCCn2ccc3ccc(OCc4ccccc4C(=O)O)cc32)cc(C)c1Cl | 800 | 1050
25 | Cc1cc(OCCCn2ccc3cc(OCc4ccc(C(=O)O)cc4)ccc32)cc(C)c1Cl | 1630 | 1410
26 | O=C(O)COc1ccc2ccn(CCCOc3ccc(Cl)cc3)c2c1 | 12900 | –
27 | Cc1cc(OCCCn2ccc3ccc(OCCO)cc32)cc(C)c1Cl | 2100 | –
28 | Cc1cc(OCCCn2ccc3ccc(OCc4cccc(C(=O)O)c4)cc32)cc(C)c1Cl | 740 | 1190
29 | Cc1cccc(OCCCn2ccc3ccc(OCC(=O)O)cc32)c1 | > 30000 | –
30 | CNC(=O)c1cc2ccc(OCc3ccccc3C(=O)O)cc2n1CCCOc1cc(C)c(Cl)c(C)c1 | 890 | 810
31 | NC(=O)c1cc2ccc(OCC(=O)O)cc2n1CCCOc1ccc(Oc2ccccc2)cc1 | 4130 | –
32 | Cc1cc(OCCCn2ccc3cc(OCc4cccc(C(=O)O)c4)ccc32)cc(C)c1Cl | 200 | 410
33 | Cc1cc(OCCCn2ccc3ccc(OCC(=O)O)cc32)cc(C)c1Cl | 1500 | –
34 | CC(C)(C)c1ccc(OCCCn2c(C(=O)N3CCCCC3)cc3ccc(OCc4ccccc4C(=O)O)cc32)cc1 | 360 | 150
35 | Cc1cc(OCCCn2ccc3ccc(C(=O)O)cc32)cc(C)c1Cl | 3000 | –
36 | O=C(O)COc1ccc2ccn(CCCOc3cccc4ccccc34)c2c1 | 2570 | –
37 | CC(C)(C)c1ccc(OCCn2ccc3ccc(OCC(=O)O)cc32)cc1 | 8190 | –
38 | Cc1cc(OCCCn2c(C(N)=O)cc3ccc(OCc4ccccc4C(=O)O)cc32)cc(C)c1Cl | 950 | 850
39 | Cc1cc(OCCCn2ccc3cc(OCC(=O)O)ccc32)cc(C)c1Cl | 1490 | –
40 | COc1ccc(OCCCn2c(C(N)=O)cc3ccc(OCC(=O)O)cc32)cc1 | 7780 | –
41 | Cc1cc(OCCCn2ccc3cc(OCc4ccccc4C(=O)O)ccc32)cc(C)c1Cl | 110 | 760
42 | Cc1cc2c(C(C)C)c(O)c(O)c(C=O)c2c(O)c1-c1c(C)cc2c(C(C)C)c(O)c(O)c(C=O)c2c1O [GOSSYPOL] | 200 | –
